Measurements from patent publication US8372840B2, “Potassium channel blockers” (Xention Limited, priority 2008, dated 2013).

Columns and labels:
[1] = biological target: hKv1.5 (Homo sapiens, UniProt P22460); assay: Kv1.5 Autopatch Electrophysiology (whole cell patch-clamp); format: cell-based; conditions: compound 1 μM, step to 0 mV for 1000 ms, total charge, room temperature (22-24° C.); for inhibition at 1 µM: read-out: hKv1.5 % inh.
Method: The external bathing solution contained (in mM): 150 NaCl, 10 KCl, […], 3 MgCl2, 1 CaCl2, 10 HEPES, pH 7.4. Patch pipettes were filled with an electrode solution of composition (in mM): 160 KCl, 0.5 MgCl2, 10 HEPES, 1 EGTA, pH 7.4 with KOH.
Compounds were dissolved in DMSO (100%) and made up in the external bather at a concentration of 1 μM. All experiments were conducted at room temperature (22-24° C.).
A cell suspension (10 ml), with a density of 100,000 cells/ml, was aliquoted into a 15 ml centrifuge tube and transferred to an incubator (37° C., 5% CO2) for approximately one hour before use. Following 60 min incubation, a tube was taken and centrifuged at 1000 rpm for 4 mins at room temperature. 9.5 ml supernatant was thence discarded, leaving a cell pellet at the bottom of the tube. The pellet was then resuspended using 100 μl of cold (4° C.), filtered (0.22 μm), 0.2% BSA/bather solution (0.02 g BSA/10 ml bather). The bottom of the tube was manually agitated gently until the solution became cloudy with cells. The 100 μl cell resuspension solution was then stored on the bench at 4° C. (using a Peltier-based temperature control device) until used.
A length of capillary glass (1B150E-4, WPI) was dipped into the cell suspension solution, such that ˜3 cm column of fluid was taken up by capillary action. A Ag/AgCl wire was dropped into the non-dipped end of the capillary also. The outside of the solution-filled end of the capillary was then dried and the capillary was loaded into the AutoPatch™
(§1) Borosilicate glass patch pipettes (from 1.5 mm OD, thin-walled filamented, GC150-TF capillary glass, Harvard) were pulled using a DMZ pipette puller (Zeitz Instruments), and were back-filled using the internal pipette solution, being careful that no bubbles remain at the tip or in the body of the pipette. Patch pipettes typically had resistances of 2.3-3.5 MΩ. Once filled, the pipette tip and a proportion of the shaft (˜15 mm) were dipped into Sigmacote (Sigma). The recording pipette was then loaded into the AutoPatch™. Automated patch-clamping was initiated by the operator, but thereafter AutoPatch.exe continued the experiment providing that pre-set conditions and criteria were satisfied.
Whole cell patch-clamp recordings were made using the AutoPatch™ rig, which incorporated an EPC9 amplifier (HEKA, Germany) under control of Pulse software (v8.54, HEKA, Germany), a motion controller with 2 translators (Newport, UK), valve controller (VF1) and a c-level suction device all at room temperature (22-24° C.). This equipment was completely under the control of AutoPatch.exe and operator intervention was only made when there was a requirement to refill the drug reservoirs or to prevent the loss of a cell due to a technical error. Cells with an Rseries greater than 18 MΩ were discounted from the experiment.
Qualification stages prior to perfusion and drug application ensured that the observed current met the criteria for the experiment. Only those cells with an IK>500 pA were used for experiments. Cells were continuously perfused with external solution at a flow rate of 1.8-2 ml/minute. […] Online analysis of the hKv1.5 current during the application of compounds was performed by the AutoPatch™ software. Voltage-step protocols and analysis of data was performed as described for conventional electrophysiology.
Electrophysiology voltage-step protocols and analysis of data was performed as follows. Data was sampled at 5 kHz, and filtered with a −3 dB bandwidth of 2.5 kHz. Cells were held at a voltage of −80 mV. Currents were evoked to a voltage step for 1000 ms in duration at 0 mV every 5 s. Currents were analysed using Pulsefit software (v8.54, HEKA, Germany), with the total charge measured during the whole of the voltage step. All other plots were produced using Igor Pro (WaveMetrics).

[2] = biological target: T1, human Kv1.3 (Homo sapiens, UniProt P22001); assay: Kv1.3 Autopatch Electrophysiology (whole cell patch-clamp, stably transfected CHO cells); format: cell-based; conditions: compound 1 μM, step to +30 mV for 500 ms, inhibition of total charge relative to control, room temperature; for inhibition at 1 µM: CHO, read-out: hKv1.3 % inh.
T1 construct: expressed in transfected cells; host or cells: stably transfected cells grown in medium for CHO cells
T1 sequence (P22001 whole entry): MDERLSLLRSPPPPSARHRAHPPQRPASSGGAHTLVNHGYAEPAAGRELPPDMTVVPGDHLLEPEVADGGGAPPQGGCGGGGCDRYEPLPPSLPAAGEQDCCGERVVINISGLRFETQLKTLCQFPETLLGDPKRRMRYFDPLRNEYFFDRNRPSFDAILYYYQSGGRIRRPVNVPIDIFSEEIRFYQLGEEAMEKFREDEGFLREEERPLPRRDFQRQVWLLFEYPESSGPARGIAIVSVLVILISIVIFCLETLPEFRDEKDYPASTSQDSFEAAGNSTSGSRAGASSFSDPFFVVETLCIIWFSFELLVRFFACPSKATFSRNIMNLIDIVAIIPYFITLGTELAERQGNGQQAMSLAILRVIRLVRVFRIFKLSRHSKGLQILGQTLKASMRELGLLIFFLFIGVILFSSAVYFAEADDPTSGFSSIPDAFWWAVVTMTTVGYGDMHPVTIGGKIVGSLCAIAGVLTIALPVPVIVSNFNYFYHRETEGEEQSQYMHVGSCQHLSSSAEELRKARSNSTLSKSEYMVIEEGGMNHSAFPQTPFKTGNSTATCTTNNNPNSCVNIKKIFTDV
Method: Cells stably transfected with cDNA for human Kv1.3 (in pcDNA3.1) were grown in Ex-cell 302 serum-free medium for CHO cells, supplemented with 10 μl/ml [100×] glutamine, 500 μg/ml G418 ([…]), and 1% HT supplement (50×, hypoxanthine and thymidine). Compounds were tested on these cells using the AutoPatch technology in whole cell mode.
The external bathing solution contained (in mM): 150 NaCl, 10 KCl, 1 MgCl2, 3 CaCl2, 10 HEPES, pH 7.4 with NaOH. Patch pipettes were filled with an electrode solution of composition (in mM): 100 K-Gluconate, 20 KCl, 1 MgCl2, 1 CaCl2, 10 HEPES, 11 EGTA, 5 ATP-Na2, 2 Glutathione pH 7.2 with KOH.
Compounds were dissolved in DMSO (100%) and made up in the external bather at a concentration of 1 μM immediately prior to use. All experiments were conducted at room temperature.
A cell suspension (10 ml), with a density of 6×10^6 cells, was aliquoted into a 15 ml centrifuge tube and stored at 4° C. before use. Prior to use a tube was taken and centrifuged at 1000 rpm for 4 mins at room temperature. The supernatant was then discarded, leaving a cell pellet at the bottom of the tube. The pellet was then resuspended using 1 ml of cold (4° C.), filtered (0.22 μm), 0.05% BSA/bather solution (0.05 g BSA/100 ml bather). The bottom of the tube was manually agitated followed by gentle tituration. The cell suspension was then placed in the AutoPatch™ temperature controlled cell-hotel at 14° C. and regularly titurated.
as §1, with “A length of Teflon capillary tubing was dipped into the cell suspension solution, and a column of fluid was taken up by negative pressure. The column of fluid was in electrically connectivity with a Ag/AgCl reference electrode. Borosilicate” for “Borosilicate”, “remained” for “remain”, “2.5-3.5” for “2.3-3.5”, “pipettes were placed in a multiwell array and mounted on” for “pipette was then loaded into”, “AutoPatch™ machine.” for “AutoPatch™.”, “patch-clamping and drug-application” for “patch-clamping”
Whole cell patch-clamp recordings were made using the AutoPatch™ rig, which incorporated an EPC9 or EPC10 amplifier (HEKA, Germany) under control of Pulse software (v8.54 or v8.76, HEKA, Germany), a cell applicator, automated drug application system (DAS), valve controller (VF1) and a suction device all at room temperature. This equipment was completely under the control of AutoPatch.exe and operator intervention was only made when there was a requirement to refill the bather reservoirs or to prevent the loss of a cell due to a technical error.
Qualification stages prior to perfusion and drug application ensured that the observed current met the criteria for the experiment. Cells were continuously perfused with external solution at a flow rate of ˜2 ml/minute.
Electrophysiology voltage-step protocols and analysis of data was performed as follows. Data were sampled at 5 kHz, and filtered with a −3 dB bandwidth of 2.5 kHz. Cells were held at a voltage of −80 mV. Currents were evoked by a voltage step to +30 mV for 500 ms in duration applied every 15 s. Online analysis of the hKv1.3 current during the application of compounds was performed by the Pulse (v8.54 or v8.76, HEKA, Germany), Excel (Microsoft, USA) and AutoPatch™ software, with the total charge measured during the whole of voltage step Inhibition of charge movement in the presence of drug was calculated relative to control.

hKv1.5, sequence (P22460 whole entry): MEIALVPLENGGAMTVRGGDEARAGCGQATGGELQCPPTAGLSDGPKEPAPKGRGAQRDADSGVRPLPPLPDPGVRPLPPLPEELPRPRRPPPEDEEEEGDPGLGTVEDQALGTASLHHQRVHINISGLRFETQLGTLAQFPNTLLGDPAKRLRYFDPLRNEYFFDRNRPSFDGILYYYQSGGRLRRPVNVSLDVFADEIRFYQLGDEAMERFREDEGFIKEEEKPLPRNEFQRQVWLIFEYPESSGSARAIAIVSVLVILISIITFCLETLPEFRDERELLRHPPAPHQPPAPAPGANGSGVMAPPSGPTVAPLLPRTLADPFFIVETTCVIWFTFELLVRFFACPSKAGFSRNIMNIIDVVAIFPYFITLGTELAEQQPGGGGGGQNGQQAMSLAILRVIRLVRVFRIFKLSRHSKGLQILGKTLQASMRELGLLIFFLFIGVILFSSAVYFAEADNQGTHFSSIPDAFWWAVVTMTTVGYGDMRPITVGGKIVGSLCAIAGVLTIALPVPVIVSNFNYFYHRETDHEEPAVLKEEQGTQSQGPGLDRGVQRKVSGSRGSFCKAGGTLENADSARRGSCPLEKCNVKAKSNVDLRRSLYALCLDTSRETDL

| inhibition at 1 µM [1] [%] | inhibition at 1 µM [2] [%] | Compound | hKv1.5 % inh. [1] [%] | hKv1.3 % inh. [2] [%] |
| --- | --- | --- | --- | --- |
| 79 | 94 | Cn1ccc(S(=O)(=O)N(Cc2ccc(Cl)cc2)c2cccc(OCC(=O)NC3CCC3)c2)n1 [Example 50, 2-{3-[(4-Chloro-benzyl)-(1-methyl-1H-pyrazole-3-sulfonyl)-amino]-phenoxy}-N-cyclobutyl-acetamide] | – | – |
| 72 | 83 | Cn1ccc(S(=O)(=O)N(Cc2ccc(Cl)cc2)c2cccc(OCC(=O)NC3CC3)c2)n1 [Example 51, 2-{3-[(4-Chloro-benzyl)-(1-methyl-1H-pyrazole-3-sulfonyl)-amino]-phenoxy}-N-cyclopropyl-acetamide] | – | – |
| – | – | N-(4-Chloro-benzyl)-3-cyano-4-fluoro-N-[3-(2-oxo-imidazolidin-1-yl)-phenyl]-benzenesulfonamide [Example 45] | 95 | 100 |
| – | – | N-Benzyl-3-cyano-4-fluoro-N-[3-(2-oxo-imidazolidin-1-yl)-phenyl]-benzenesulfonamide [Example 44] | 72 | 90 |
| – | – | N-[3-(Benzenesulfonyl-benzyl-amino)-phenyl]-acetamide [Example 10] | 28 | 50 |
| – | – | Pyridine-3-sulfonic acid (4-chloro-benzyl)-[3-(2-oxo-imidazolidin-1-ylbenzyl)-[3-(2-oxo-imidazolidin-1-yl)-phenyl]-amide [Example 48] | 89 | 96 |
| – | – | Pyridine-3-sulfonic acid benzyl-[3-(2-oxo-imidazolidin-1-yl)-phenyl]-a(2-oxo-imidazolidin-1-yl)-phenyl]-amide [Example 47] | 51 | 74 |
| – | – | Pyridine-3-sulfonic acid benzyl-[3-(4-phenyl-piperazin-1-yl)-phenyl]-amide [Example 16] | 91 | 97 |
